Laboratory results from patent US11028141B2, “Therapeutic for the prevention and/or treatment of weight gain and/or diabetes” (priority 2016, dated 2021).

What was measured:
GLUTag cells = test: GLP-1 secretion by GLUTag cells, measured by ELISA; type: cell-based, murine; details: cell-free supernatants or PMA positive control on GLUTag cells
Procedure: S. epidermidis has GLP-1 stimulatory activity in vitro in NCI H716 and GLUTag cells—In order to identify bacterial strains capable of eliciting GLP-1 secretion, 1500 microbial supernatants were screened using human NCI H716 cells. […] Following 16S rRNA sequencing, all 45 stimulatory strains came back as strains of S. epidermidis. Incubation of cell-free supernatants from two of the stimulatory strains with the highest activity, S. epidermidis JA1 and JA8 on NCI H716 cells stimulated a release of 3155±276 pM and 2518±141 pM GLP-1, respectively (FIG. 6A). GM17 media control and the PMA positive control had GLP-1 levels of 565±188 pM and 1767±120 pM GLP-1, respectively, indicating an approximate 2-fold increase in activity by JA1 over the positive PMA control. It was confirmed that JA1 and JA8 could stimulate GLP-1 secretion in a second model, murine GLUTag cells. S. epidermidis JA1 and JA8 led to the release of 1123±107 pM and 984±40 pM GLP-1, respectively (FIG. 6B). The GM17 media control and the PMA positive control had GLP-1 levels of 327±35 pM and 305±14 pM, respectively, indicating no real stimulation by PMA. […] None of the S. epidermidis bacterial cell-free supernatants had detectable toxicity on NCI H716 (FIG. 6C) and GLUTag (FIG. 6D) cells, as determined by a PrestoBlue resazurin-based analysis which measures aerobic respiration as an indicator of cell viability.

NCI H716 cells = type: cell-based, human
Procedure: Identifying the microbial-derived compound responsible for GLP-1 stimulatory activity—To narrow down the bacterial component responsible for GLP-1 secretion in vitro, and for metabolic disease marker modulation in vivo, size fractionation studies were performed using Amicon centrifuge filtration tubes and exposure of the fractions on NCI H716 cells.
To further identify the component responsible for the activity, bacterial supernatants were analyzed using a Thermo Orbitrap Fusion mass spectrometer equipped with an Easy Nanospray HPLC system.

Row | Molecule | release of GLP-1 (GLUTag cells) [pM] | release of GLP-1 (NCI H716 cells; cell-free supernatants or PMA positive control on NCI H716 cells) [pM] | GLP-1 stimulatory activity (GLP-1) (NCI H716 cells; 20 μM peptide, NCI H716 cells) [pM] | GLP-1 stimulatory activity of synthesized peptides (NCI H716 cells; varying concentrations, NCI H716 cells)
1 | CCCCCCCCCCCCCC(=O)O[C@@H]1[C@@H](C)[C@@]2(O)[C@@H](C=C(CO)C[C@]3(O)C(=O)C(C)=C[C@@H]23)[C@@H]2C(C)(C)[C@]12OC(C)=O [PMA, reference compound] | 305 ± 14 | 1767 ± 120 | – | –
2 | MAADIISTIGDLVKWIIDTVNKFTKK [24_25insT] | – | – | 1283.5 ± 798 | activity
